Target: Serine/threonine-protein kinase Nek7 (Homo sapiens) (UniProt Q8TDX7)
Assay: NEK7 kinase inhibitors, dose response, biochemical, Z'-LYTE FRET, direct format, recombinant human (AID 1671332)
Conditions: Z'-LYTE FRET kinase activity

Chain of Serine/threonine-protein kinase Nek7 (Homo sapiens) (Q8TDX7 whole entry, looked up): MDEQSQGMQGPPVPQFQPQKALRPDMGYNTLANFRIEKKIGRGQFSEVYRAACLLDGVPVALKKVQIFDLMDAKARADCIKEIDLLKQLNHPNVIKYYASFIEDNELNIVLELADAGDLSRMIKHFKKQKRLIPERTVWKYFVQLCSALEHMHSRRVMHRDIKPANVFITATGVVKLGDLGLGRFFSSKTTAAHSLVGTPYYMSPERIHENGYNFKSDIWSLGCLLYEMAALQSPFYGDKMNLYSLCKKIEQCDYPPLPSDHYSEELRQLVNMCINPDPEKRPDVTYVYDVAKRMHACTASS

CN1C(=O)C2(Cc3cn(C45CC67SSC(CO)(C(=O)N6C4Nc4ccccc45)N(C)C7=O)c4ccccc34)SSC1(CO)C(=O)N2C (stereo unspecified)
IC50: 0.274 µM

Reference: PubChem BioAssay AID1671332
